Paper PMC11476419, “Analysis of Punicalin and Punicalagin Interaction with PDIA3 and PDIA1” (International Journal of Molecular Sciences, 2024)
pKd: −log10 of the molar value.

Experiments:
PDIA1 = target: T1, PDIA1 (Homo sapiens, UniProt P07237); assay: Intrinsic tryptophan fluorescence quenching; format: binding
T1 construct: The mature human PDIA1 with an N-terminal His6x-tag was expressed and purified; His6 (N); made in house
Description: (§1) In a previous article, we evaluated the ability of punicalagin to interact with PDIA1 and PDIA3 [40]. In this study, the results previously obtained were compared with those obtained using punicalin. The protein–ligand interaction was evaluated by intrinsic quenching analysis due to the presence, in both proteins, of aromatic amino acids, among which tryptophan residues represent the main source. Quenching analysis was performed on PDIA1 and PDIA3, in the reduced form, by adding increasing concentrations of punicalin and recording the fluorescence spectra of both proteins. […] Quenching of intrinsic tryptophan fluorescence of both proteins was assessed using the Stern–Volmer equation, as previously reported. To further characterize the binding process, fluorescence data were analyzed using the equation described by Bi et al. and the reiterative calculation process described by Sun et al., providing an estimated value of the dissociation constant (Kd). The values of the Stern–Volmer constant (KSV) and the Kd obtained for punicalin are summarized in Table 1 and compared with those obtained for punicalagin [40]. The comparison of the results confirms that punicalin can bind both PDIs, although showing a slightly lesser affinity with respect to punicalagin.
(§2) The mature recombinant form (devoid of the N-terminal […]) of the human PDIA3 protein was expressed and purified according to the procedure previously described. […] In both cases, protein purification was evaluated by SDS-PAGE and Coomassie Blue staining, while the concentration was spectrophotometrically estimated using the extinction coefficient (PDIA3 in the reduced form, ε280 = 44,810 M^−1cm^−1; PDIA1 in the reduced form, ε280 = 45,567 M^−1cm^−1).
(§3) Protein–ligand interactions were evaluated by titration of intrinsic fluorescence quenching. Protein mission spectra were recorded by a SPEX-FluoroMax spectrofluorometer (Horiba Scientific, Piscataway, NJ, USA) from 300 to 400 nm, with an excitation wavelength set at 290 nm, emission slit set width, a 2 nm bandpass, and a scan speed set at 120 nm min^−1. […] The emission spectrum of the protein was recorded and the fluorescence intensities at 338 nm, obtained in at least three independent titration experiments, were used for quenching analyses, as previously described. Quenching of intrinsic tryptophan fluorescence at 338 nm was analyzed by the Stern–Volmer equation (Fo/F = 1 + KSV[L]), where F and Fo are the fluorescence intensity, respectively with or without ligand (L), and KSV is the Stern–Volmer constant value. Fluorescence data at 338 nm were also analyzed using the equation described by Bi et al. and the reiterative calculation process described by Sun et al., providing an estimated value of Kd.

PDIA3 = target: T2, PDIA3 (Homo sapiens, UniProt P30101); assay: Intrinsic tryptophan fluorescence quenching; format: binding
T2 construct: The mature recombinant form (devoid of the N-terminal […]) of the human PDIA3 protein was expressed and purified; made in house
T2 sequence (P30101 25-505): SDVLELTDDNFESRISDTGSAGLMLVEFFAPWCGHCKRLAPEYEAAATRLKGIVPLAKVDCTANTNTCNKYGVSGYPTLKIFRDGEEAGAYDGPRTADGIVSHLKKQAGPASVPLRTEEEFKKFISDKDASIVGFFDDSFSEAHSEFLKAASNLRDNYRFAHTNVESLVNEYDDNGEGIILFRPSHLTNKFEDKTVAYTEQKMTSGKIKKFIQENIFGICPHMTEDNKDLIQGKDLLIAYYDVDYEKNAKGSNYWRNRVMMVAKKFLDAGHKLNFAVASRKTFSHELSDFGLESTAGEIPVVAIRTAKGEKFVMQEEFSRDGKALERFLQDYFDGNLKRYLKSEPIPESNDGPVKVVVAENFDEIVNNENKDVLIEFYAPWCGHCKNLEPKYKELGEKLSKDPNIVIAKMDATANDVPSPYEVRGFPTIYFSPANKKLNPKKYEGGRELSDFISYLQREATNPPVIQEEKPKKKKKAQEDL
Description: as §1, §2, §3

T98G cells = assay: Cell counting (crystal violet); format: cell-based, human
Description: The number of cells was evaluated after 24 h, 48 h, and 72 h of treatment with punicalin at the concentration of 5 µM and 20 µM (Figure 5b). […] However, an increase in the cell number occurred after 72 h of treatment with punicalin at a 5 µM concentration.
T98G and U-87 MG cells were seeded into 12-well plates (70,000 cells/well) and treated with 5 µM and 20 µM concentrations of punicalin for 24 h, 48 h, and 72 h. At the end of incubation, the cells were washed with PBS (Sigma-Aldrich, cat. D8662), fixed with cold methanol for 20 min, stained with 0.1% crystal violet in methanol/PBS (ratio 1:4) at room temperature for 1 h, and washed again in PBS. To estimate the number of cells remaining in each well, the crystal violet was solubilized by adding a methanol/water solution (50% v/v) and the absorbance at 595 nm was measured.

PDIA3 in T98G cells = assay: Cellular distribution of PDIA3 by immunofluorescence; format: cell-based, human; conditions: 5 µM for 48 h and 20 µM for 24 h
Description: (§4) Possible changes in the cellular distribution of PDIA3 were previously studied by immunofluorescence assay. Recently, Bilches Medinas et al. reported that a PDIA3 mutation with the loss of functions induced protein aggregation. […] T98G and U87 MG cells were treated with 5 µM and 20 µM of punicalin for 48 h and 24 h, respectively (Figure 8).
(§5) T98G and U-87 MG cells were seeded on coverslips into 6-well plates (200,000 cells/well) and incubated for 24 h and 48 h in the presence of 5 µM and 20 µM punicalagin/punicalin. Cells grown on coverslips were washed with PBS, fixed with 3.7% formaldehyde for 20 min, rinsed with PBS, and then permeabilized with cold methanol (−20 °C) for 5 min. Immunofluorescence analysis was performed according to Paglia et al. using a specific primary antibody against PDIA3 (Millipore, Milan, Italy, cat. ABE1032). Coverslips were mounted on glass microscope slides with DuolinkTM mounting medium and examined using a fluorescence microscope (Leica AF6000 Modular System, Leica, Milan, Italy) with a 63× oil immersion objective. Samples were captured under the same acquisition parameters.

PDIA3 in U87 MG cells = assay: as above; format: cell-based, human; conditions: 5 µM for 48 h and 20 µM for 24 h
Description: as §4, §5

T1 sequence (P07237 18-508): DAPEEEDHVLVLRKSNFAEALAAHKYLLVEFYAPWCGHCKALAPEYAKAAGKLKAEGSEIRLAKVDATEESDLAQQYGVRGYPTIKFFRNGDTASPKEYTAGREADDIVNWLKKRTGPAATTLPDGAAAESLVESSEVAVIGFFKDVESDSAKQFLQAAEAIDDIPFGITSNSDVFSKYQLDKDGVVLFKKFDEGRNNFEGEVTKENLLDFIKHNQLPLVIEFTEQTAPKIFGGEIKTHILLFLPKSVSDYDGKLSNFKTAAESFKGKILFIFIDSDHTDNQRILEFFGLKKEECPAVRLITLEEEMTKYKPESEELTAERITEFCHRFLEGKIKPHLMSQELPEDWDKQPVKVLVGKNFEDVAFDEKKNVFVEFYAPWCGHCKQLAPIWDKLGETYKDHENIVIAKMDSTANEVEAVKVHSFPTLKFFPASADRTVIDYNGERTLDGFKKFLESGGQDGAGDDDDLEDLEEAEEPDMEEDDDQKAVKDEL

Stern–Volmer constant (KSV) (PDIA1; reduced PDIA1 0.1 × 10^−6 M, pH 7.4, 25 °C, mean and SEM): 64.0 ± 0.4 M^−1 × 10^3 | pKd (PDIA1; reduced PDIA1, pH 7.4, 25 °C, estimated from quenching data, read-out: dissociation constant (Kd)): 4.80 | Stern–Volmer constant (KSV) (PDIA3; reduced PDIA3 0.1 × 10^−6 M, pH 7.4, 25 °C, mean and SEM): 73.7 ± 0.7 M^−1 × 10^3 | pKd (PDIA3; reduced PDIA3, pH 7.4, 25 °C, estimated from quenching data, read-out: dissociation constant (Kd)): 4.85
Compound: O=C1OC[C@H]2OC(O)[C@H](O)[C@@H](O)[C@@H]2OC(=O)c2cc(O)c(O)c(O)c2-c2c(O)c(O)c3oc(=O)c4c(c(O)c(O)c5oc(=O)c2c3c54)-c2c1cc(O)c(O)c2O (mixture of isomers) [Punicalin, punicalin]
kind of effect on cells (T98G cells; 5 µM): preferential cytostatic effect | kind of effect on cells (T98G cells; 20 µM): cytotoxic | effect on cell number (T98G cells; 48 h, 5 µM and 20 µM): marked reduction in the T98G cell number | change in cellular distribution of PDIA3 (PDIA3 in T98G cells): marked change in the fluorescence pattern and a cellular redistribution of PDIA3 | change in cellular distribution of PDIA3 (PDIA3 in U87 MG cells): marked change in the fluorescence pattern and a cellular redistribution of PDIA3
